Results from ChEMBL document CHEMBL5634125, “Investigation of novel 5'-amino adenosine derivatives with potential anti-Zika virus activity” (Eur J Med Chem, 2023).
Active and inactive are the calls of the source. No cut-off for these calls is given here.

Assays:
U-87MG ATCC [1] = experiment: Effect on CXCL2 expression in human U87 cells infected with Zika virus at 10 uM by KEGG enrichment analysis; type: functional, cell-based
U-87MG ATCC [2] = experiment: Effect on CXCL8 expression in human U87 cells infected with Zika virus at 10 uM by KEGG enrichment analysis; type: functional, cell-based
Zika virus [3] = experiment: Inhibition of Zika virus NS5-RdRp preincubated for 20 mins followed by ATP addition and measured after 60 mins by fluorescence based assay; details: dose 3.13-50 µM, time 80.0 min
[4] = Tmax in ICR mouse at 25 mg/kg, po administered as single dose and measured upto 24 hrs by LC-MS/MS analysis; type: ADME, organism-based; details: in vivo
Zika virus [5] = experiment: Antiviral activity against Zika virus infected in golden hamster BHK cells assessed as inhibition of virus induced cytopathic effect incubated for 6 to 8 days by CellTiter-Glo luminescent cell viability assay; type: functional, organism-based
[6] = Acute toxicity in A129 mouse assessed as animal death at 200 mg/kg, po measured after 2 weeks; type: organism-based; details: in vivo, 336 h
Zika virus [7] = experiment: Antiviral activity against Zika virus SMGC-1 infected in ICR mouse assessed as increase in body weight at 10 mg/kg, ip pre-infected with virus for 4 hrs followed by once daily compound administration for 9 days and measured at 14 to 24 days; type: functional, organism-based; details: time 14-24 day
Zika virus [8] = experiment: Antiviral activity against Zika virus infected in Ifnar-/- A129 mouse assessed as reduction in viral RNA in serum at 10 mg/kg, ip administered twice daily for 4 days by qRT-PCR analysis; type: functional, organism-based; details: time 4.0 day
[9] = Acute toxicity in po dosed ICR mouse assessed as lethal dose measured after 2 weeks; type: organism-based; details: in vivo
[10] = AUC (0 to t) in ICR mouse at 25 mg/kg, po administered as single dose and measured upto 24 hrs by LC-MS/MS analysis; type: ADME, organism-based; details: in vivo
Zika virus [11] = experiment: Antiviral activity against Zika virus infected in golden hamster BHK-21 cells assessed as inhibition of viral replication incubated for 72 hrs by Dual-luciferase reporter assay system; type: functional, organism-based; details: BHK-21, 72 h
Zika virus [12] = experiment: Antiviral activity against Zika virus infected in golden hamster BHK cells assessed as inhibition of viral replication incubated for 72 hrs by qRT-PCR analysis; type: functional, organism-based; details: dose 2.5-20 µM
Zika virus [13] = experiment: Antiviral activity against Zika virus infected in U87 cells assessed as suppression of CXCL11 expression at 10 uM by KEGG enrichment analysis; type: functional, organism-based
[14] = Inhibition of Zika virus NS5 transfected in HEK293T cells co-transfected with GLuc reporter plasmid incubated for 24 hrs by GLuc reporter assay; type: cell-based; details: HEK-293T
Dengue virus [15] = experiment: Antiviral activity against Dengue virus assessed as inhibition of viral RNA production at stage III; type: functional, organism-based
[16] = Acute toxicity in A129 mouse assessed as animal death at 100 mg/kg, po measured after 2 weeks; type: organism-based; details: in vivo, 336 h
[17] = Cmax in ICR mouse at 25 mg/kg, po administered as single dose and measured upto 24 hrs by LC-MS/MS analysis; type: ADME, organism-based; details: in vivo
Zika virus [18] = experiment: Antiviral activity against Zika virus infected in golden hamster BHK cells assessed as reduction in infectious viral propagation incubated for 72 hrs by plaque reduction assay; type: functional, organism-based; details: dose 2.5-20 µM
[19] = Acute toxicity in A129 mouse assessed as animal death at 50 mg/kg, po measured after 2 weeks; type: organism-based; details: in vivo, 336 h
Zika virus [20] = experiment: Inhibition of Zika virus NS5-RdRp at 12.5 uM preincubated for 20 mins followed by ATP addition and measured after 60 mins by fluorescence based assay relative to control; details: time 80.0 min
NS5 (Zika virus) = NS5 (Zika virus) (UniProt A0A143MHK7); experiment: Binding affinity to Zika virus RdRp by SPR analysis; details: dose 1.56-25 µM
Zika virus [21] = experiment: Antiviral activity against Zika virus SMGC-1 infected in ICR mouse assessed as survival at 1 mg/kg, ip pre-infected with virus for 4 hrs followed by once daily compound administration for 9 days and measured after 24 days relative to control; type: functional; details: SMGC-1, 576 h, time 24 day
U-87MG ATCC [22] = experiment: Effect on CXCL3 expression in human U87 cells infected with Zika virus at 10 uM by KEGG enrichment analysis; type: functional, cell-based
Zika virus [23] = experiment: Antiviral activity against Zika virus infected in golden hamster BHK cells assessed as inhibition of viral protein production incubated for 72 hrs by Western blot analysis; type: functional, organism-based; details: dose 2.5-20 µM
[24] = Half-life in ICR mouse at 25 mg/kg, po administered as single dose and measured upto 24 hrs by LC-MS/MS analysis; type: ADME, organism-based; details: in vivo
Zika virus [25] = experiment: Antiviral activity against Zika virus infected in golden hamster BHK cells assessed as inhibition of viral RNA production at stage IV pre-infected with virus for 2 hrs followed by compound addition and measured 24 hrs post infection by qRT-PCR analysis; type: functional, organism-based; details: time 22.0 hrs
Zika virus [26] = experiment: Inhibition of Zika virus NS2B-NS3 protease using Bz-Nle-Lys-Lys-Arg-AMC as substrate at 1.25 to 200 uM preincubated for 30 mins followed by substrate addition and measured after 20 mins by Real-time fluorescence based analysis; details: dose 1.25-200 µM, time 50.0 min
Zika virus [27] = experiment: Inhibition of Zika virus NS5-RdRp at 50 uM preincubated for 20 mins followed by ATP addition and measured after 60 mins by fluorescence based assay relative to control; details: time 80.0 min
Zika virus [28] = experiment: Antiviral activity against Zika virus SMGC-1 infected in ICR mouse assessed as survival at 10 mg/kg, ip pre-infected with virus for 4 hrs followed by once daily compound administration for 9 days and measured after 24 days relative to control; type: functional; details: SMGC-1, 576 h, time 24 day
Dengue virus [29] = experiment: Antiviral activity against Dengue virus assessed as inhibition of viral RNA production at stage IV; type: functional, organism-based
[30] = MRT in ICR mouse at 25 mg/kg, po administered as single dose and measured upto 24 hrs by LC-MS/MS analysis; type: ADME, organism-based; details: in vivo
Zika virus [31] = experiment: Antiviral activity against Zika virus infected in infected in golden hamster BHK cells assessed as inhibition of viral RNA production at stage III incubated for 24 hrs by qRT-PCR analysis; type: functional, organism-based
Zika virus [32] = experiment: Inhibition of Zika virus NS5 MTase activity at 50 uM by chemiluminescence-based enzymatic assay system relative to control

With O[C@@H]1[C@H](O)[C@@H](CNCc2ccc(C(F)(F)F)cc2)O[C@H]1n1cnc2c(NCc3cccc(Cl)c3)ncnc21 the Activity (U-87MG ATCC [1]) was “inactive”, the Activity (U-87MG ATCC [2]) was “inactive” and the inhibition (Zika virus [3]) was “Dose-Dependent Effect”. The Tmax [4] was 0.42 h, the IC50 (Zika virus [5]) was 2.15 µM and the Activity [6] was “Non-Toxic”. The Activity (Zika virus [7]) was “Active”, the Activity (Zika virus [8]) was “Active” and the LD50 at 336 h [9] was over 200 mg/kg. For the same molecule, the AUC(0-t) at 24 h [10] was 2220 ng·h/mL, the IC50 (Zika virus [11]) was 5.27 µM and the Activity (Zika virus [12]) was “Dose-Dependent Effect”. For the same molecule, the Activity (Zika virus [13]) was “Active”, the IC50 [14] was 8.78 µM and the Activity (Dengue virus [15]) was “Active”. The Activity [16] was “Non-Toxic”, the Cmax [17] was 699 ng/mL and the Activity (Zika virus [18]) was “Dose-Dependent Effect”. For the same molecule, the Activity [19] was “Non-Toxic”, the inhibition (Zika virus [20]) was 17.5% and the Activity (NS5 (Zika virus)) was “Dose-Dependent Effect”. For the same molecule, the survival at 1 mg/kg (Zika virus [21]) was 30%, the Activity (U-87MG ATCC [22]) was “inactive” and the Activity (Zika virus [23]) was “Dose-Dependent Effect”. The half-life [24] was 2.46 h, the Activity (Zika virus [25]) was “Active” and the inhibition (Zika virus [26]) was “inactive”. For the same molecule, the inhibition (Zika virus [27]) was 62.4%, the survival at 10 mg/kg (Zika virus [28]) was 70% and the Activity (Dengue virus [29]) was “Active”. The MRT [30] was 3.82 h, the Activity (Zika virus [31]) was “Active” and the inhibition (Zika virus [32]) was 20.5%.
